Experimental data taken from patent US6395775B1, “Combating pest insects” (priority 1995, dated 2002).
Entries after “also recorded” stand apart in the source; their conditions may differ.

Assays:
[1] = test system: codling moth, Cydia pomonella; experiment: Confusion test in 100 m^2 test areas in a fruit orchard; type: in vivo; conditions: for confusing effect (males trapped compared with non-treated control square): four dispensing means in the corners, pheromone trap in the center
Experimental: In another test a confusion test was carried out in 100 m^2 quadratic test areas in a fruit orchard. […] In the respective center of each square, a pheromone trap loaded with the sex pheromone, E8, E10-dodecadien-1-ol of the codling moth, was placed. The confusing effect was calculated as the number of males trapped in the trap compared with the number trapped in a trap in a non-treated control square, i.e. without any behavior antagonist in the respective corner. […] The sex pheromone of the codling moth, the alcohol, is as already mentioned, in commercial use. The inhibiting results are, however, not always satisfying, (Cardé & Minks, 1995, “Control of moth pests by mating disruption. Successes and constraints”, Ann. Rev. Entomol. 49:559-585) in particular not in fruit orchards having high trees and a high population density. […] Probably, the concentration of pheromone from located dispensing means so low there, that the attracting power of the pheromone dominates its confusing effect. Males circulating in the tree tops may also be caught in lower placed traps which indicates a lacking confusing effect. […] Several of the males caught in pheromone traps in such treated squares can be seen flying some meters above the ground and straight into the trap. They never arrived from the top of the trees.

codling moth = conditions: cited from earlier work; for previous classification of behavioural role: Hathaway et al. 1974, Witzgall et al. 1996a, El-Sayed et al. 1998
[2] = test system: codling moth, Cydia pomonella; experiment: Pheromone trap catch test; type: in vivo; conditions: for behavioural effect on codling moth in pheromone traps: isomer of the acetate combined with E8,E10-dodecadien-1-ol in traps
Description: Pheromone traps were loaded with the pheromone, E8,E10-dodecadien-1-ol of the codling moth, (FIG. 1A). In other traps the alcohol was combined with the corresponding acetate (FIG. 1B). At a blend of 20% of the acetate the catch decreased to ⅛ (dark column).

C. pomonella males = experiment: Wind tunnel experiments, male attraction; type: in vivo, Cydia pomonella; conditions: codlemone 10 pg/min; E8,Z10-dodecadien-1-ol added at 3% by weight or E8,E10-dodecadienyl acetate at 1% by weight; n=60
Description: Tests were done in a wind tunnel with a flight section of 63 by 90 by 200 cm. Dilutions of synthetic compounds in redistilled ethanol were released from an ultrasound evaporator (Gödde et al. 1999). A motor-driven syringe delivered pheromone solutions in ethanol, through micro-tubing, to a glass capillary tube with a 40 μm tip. A piezo-ceramic disc vibrates the tip of the capillary tube at 100-140 kHz, and the pheromone solution evaporates within a few cm of the tip of the capillary.
The main compound codlemone, E8,E10-dodecadien-1-ol, was applied at a rate of 10 pg/min, E8,Z10-dodecadien-1-ol was added at 3% by weight (FIG. 2), E8,E10-dodecadienyl acetate was added at 1% by weight (FIG. 3).
Test sessions started 1 h after lights off and lasted 3 to 4 h. Two-day-old males were placed individually in glass tubes (15 by 2.5 cm) stoppered with gauze, 15 min prior to testing. Males were released individually and were allowed 2 min to respond. Treatments were tested on 4 days with 15 males/day (n=60).
The sequence of male behaviours elicited by perception of sex pheromone includes activation from rest and taking flight, upwind-oriented flight towards the pheromone source, landing at the pheromone source, and display of courtship behaviors close to the source (walking while wingfanning) (FIGS. 2 and 3). These behaviors are followed by mating, if the pheromone source is a calling female.

Row | Structure (SMILES) | confusing effect (males trapped compared with non-treated control square) [1] | behavioural effect on codling moth in pheromone traps [2] | male attraction and close range behaviours at the pheromone source, compared to E8,E10-dodecadien-1-ol alone (C. pomonella males) | previous classification of behavioural role (codling moth) | also measured
1 | C/C=C/C=C/CCCCCCCO [E8,E10-dodecadien-1-ol] | strong confusing effect | – | – | – | observation of males in the tree tops of treated squares ([1]; fruit orchards having high trees and a high population density): males are attracted to the tree tops; attraction of the codling moth by geometric isomers of the alcohol (codling moth; Roelofs et al (1972)): very attractive
2 | CC=CC=CCCCCCCCOC(C)=O [EZ] | – | behaviour antagonists | – | – | –
3 | C/C=C\C=C\CCCCCCCO [E8,Z10-dodecadien-1-ol] | – | – | enhances male attraction and close range behaviours | pheromone antagonists | –
4 | C/C=C/C=C\CCCCCCCOC(C)=O [ZE] | – | behaviour antagonists | – | – | –
5 | C/C=C/C=C/CCCCCCCOC(C)=O [E8,E10-dodecadien-1-yl acetate] | strong confusing effect | behaviour antagonist | enhances male attraction and close range behaviours; also recorded: acts as an antagonist when present in high amounts, and as a synergist when present in lower amounts | pheromone antagonists | catch in pheromone traps, decrease relative to E8,E10-dodecadien-1-ol alone ([2]; alcohol combined with the acetate, blend of 20% of the acetate): ⅛
6 | CC=CC=CCCCCCCCOC(C)=O [ZZ] | – | – | – | – | behavioural effect on codling moth in pheromone traps ([2]; listed as zz-isomer): most powerful of the four isomers
